Experimental data taken from US20160355483A1, “COMPOUND BINDING TO PPARG BUT NOT ACTING AS PROMOTER AND PHARMACEUTICAL COMPOSITION FOR TREATING PPARG-RELATED DISEASES CONTAINING SAME AS ACTIVE INGREDIENT” (Hyundai Pharm Co., Ltd., priority 2014, published 2016).

biological target: T1, PPARG (peroxisome proliferator activated receptor-gamma), GST-PPARG-LBD (Homo sapiens, UniProt P37231); experiment: LanthaScreen TR-FRET PPARG Competitive Binding Assay; set-up: key: “+” indicates the degree of the binding activity, and as the number of “+” increases, the binding activity is stronger; ++: “+” indicates the degree of the binding activity, and as the number of “+” increases, the binding activity is stronger; +++: “+” indicates the degree of the binding activity, and as the number of “+” increases, the binding activity is stronger; ++++: “+” indicates the degree of the binding activity, and as the number of “+” increases, the binding activity is stronger; settings: degree of binding activity
T1 construct: 15 μL of 5 nM GST-PPARG-LBD and 5 nM Tb-GST-antibody were added; purchased Invitrogen PV4894
T1 sequence (P37231 238-503 limits assumed): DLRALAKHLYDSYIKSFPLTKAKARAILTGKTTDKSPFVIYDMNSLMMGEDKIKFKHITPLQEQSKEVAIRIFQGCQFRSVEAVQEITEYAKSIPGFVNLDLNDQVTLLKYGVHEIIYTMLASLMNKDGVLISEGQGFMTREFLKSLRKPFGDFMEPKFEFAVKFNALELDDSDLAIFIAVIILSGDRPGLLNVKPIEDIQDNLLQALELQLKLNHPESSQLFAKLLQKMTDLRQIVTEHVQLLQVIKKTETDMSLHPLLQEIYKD
Procedure: The following experiment was performed to evaluate the PPARG (peroxisome proliferator activated receptor-gamma) binding capacity and transcriptional activity of the compounds prepared in the examples of the invention. For the experiment, LanthaScreen™ TR-FRET PPARG Competitive Binding Assay Kit (PV4894, Invitrogen) was used according to the manufacturer's instruction. […] The mixture was loaded in a 384-well plate (Greiner, 784075) by 20 μL per well, followed by reaction at room temperature for 1 hour. Upon completion of the reaction, fluorescence value was measured by using Flexstation 3 (Molecular Devices) with time-resolved fluorescence (RFU) mode (excitation 1: 340 nm, emission 1: 518 nm, excitation 2: 340 nm, emission 2: 488 nm, integration delay 50 μs, integration 400 μs). The results were calculated by using 518 nm RFUs/488 nm RFUs ratio. The activity of the compounds of the invention was compared with that of the vehicle, which was calculated by ratio according to the formula [100%−compound of the example ratio/vehicle ratio]. At this time, the binding activity ratio to rosiglitazone was compared.

SMILES	Binding assay (1 μLM)
NC(=O)c1ccccc1-c1ccc(CN2CCCc3cc(C(=O)NCc4ccc(Br)cc4)ccc32)cc1 [Example 53, N-(4-bromobenzyl)-1-((2′-carbamoyl-[1,1′-biphenyl]-4-yl)methyl)-1,2,3,4-tetrahydroquinoline-6-carboxamide]	+++
NC(=O)c1ccccc1-c1ccc(CN2CCCc3cc(C(=O)NCc4cccc(OC(F)(F)F)c4)ccc32)cc1 [Example 54, 1-((2′-carbamoyl-[1,1′-biphenyl]-4-yl)methyl)-N-(3-(trifluoromethoxy)benzyl)-1,2,3,4-tetrahydroquinoline-6-carboxamide]	+++
C[C@H](NC(=O)c1ccc2c(c1)OCCN2Cc1ccc(-c2ccccc2C(N)=O)cc1)c1ccccc1 [Example 59, (S)-4-((2′-carbamoyl-[1,1′-biphenyl]-4-yl)methyl)-N-(1-phenylethyl)-3,4-dihydro-2H-benzo[b][1, 4]oxazine-7-carboxamide]	++
C[C@H](NC(=O)c1ccc2c(c1)OCCN2Cc1ccc(-c2ccccc2C(=O)O)cc1)c1ccc(Br)cc1 [Example 61, (S)-4′-((7-((1-(4-bromophenyl)ethyl)carbamoyl)-2H-benzo[b][1,4]oxazine-4(3H)-yl)methyl)-[1,1′-biphenyl]-2-carboxylic acid]	++
CC[C@H](NC(=O)c1ccc2c(c1)OCCN2Cc1ccc(-c2ccccc2C(=O)O)cc1)c1ccccc1 [Example 62, (S)-4′-((7-((1-phenylpropyl)carbamoyl)-2H-benzo[b][1,4]oxazine-4(3H)-yl)methyl)-[1,1′-biphenyl]-2-carboxylic acid]	+++
C[C@H](NC(=O)c1ccc2c(c1)OCCN2Cc1ccc(-c2ccccc2C(=O)O)cc1)c1ccc(F)cc1 [Example 63, (S)-4′-((7-((1-(4-fluorophenyl)ethyl)carbamoyl)-2H-benzo[b][1,4]oxazine-4(3H)-yl)methyl)-[1,1′-biphenyl]-2-carboxylic acid]	+
C[C@H](NC(=O)c1ccc2c(c1)OCCN2Cc1ccc(-c2ccccc2C(=O)O)cc1)c1ccc(Cl)cc1 [Example 64, (S)-4′-((7-((1-(4-chlorophenyl)ethyl)carbamoyl)-2H-benzo[b][1,4]oxazine-4(3H)-yl)methyl)-[1,1′-biphenyl]-2-carboxylic acid]	+
C[C@H](NC(=O)c1ccc2c(c1)OCCN2Cc1ccc(-c2ccccc2C(=O)O)cc1)c1cccc(Cl)c1 [Example 65, (S)-4′-((7-((1-(3-chlorophenyl)ethyl)carbamoyl)-2H-benzo[b][1,4]oxazine-4(3H)-yl)methyl)-[1,1′-biphenyl]-2-carboxylic acid]	++
O=C(NCc1ccc([N+](=O)[O-])cc1)c1ccc2c(c1)OCCN2Cc1ccc(-c2ccccc2C(=O)O)cc1 [Example 66, 4′-((7-((4-nitrobenzyl)carbamoyl)-2H-benzo[b][1,4]oxazine-4(3H)-yl)methyl)-[1,1′-biphenyl]-2-carboxylic acid]	+
O=C(NCc1ccccc1)c1ccc2c(c1)OCCN2Cc1ccc(-c2ccccc2C(=O)O)cc1 [Example 67, 4′-((7-(benzylcarbamoyl)-2H-benzo[b][1,4]oxazine-4(38)-yl)methyl)-[1,1′-biphenyl]-2-carboxylic acid]	++
O=C(NCCc1ccccc1)c1ccc2c(c1)OCCN2Cc1ccc(-c2ccccc2C(=O)O)cc1 [Example 68, 4′-((7-(phenethylcarbamoyl)-2H-benzo[b][1,4]oxazine-4(3H)-yl)methyl)-[1,1′-biphenyl]-2-carboxylic acid]	++
O=C(NCc1ccco1)c1ccc2c(c1)OCCN2Cc1ccc(-c2ccccc2C(=O)O)cc1 [Example 69, 4′-((7-((furan-2-ylmethyl)carbamoyl)-2H-benzo[b][1,4]oxazine-4(3H)-yl)methyl)-[1,1′-biphenyl]-2-carboxylic acid-A]	+
C[C@H](NC(=O)c1ccc2c(c1)OCCN2Cc1ccc(-c2ccccc2C(=O)O)cc1)c1cccc2ccccc12 [Example 70, (S)-4′-((7-((1-(naphthalene-1-yl)ethyl)carbamoyl)-2H-benzo[b][1,4]oxazine-4(3H)-yl)methyl)-[1,1′-biphenyl]-2-carboxylic acid]	++
COC(=O)c1ccc(CNC(=O)c2ccc3c(c2)OCCN3Cc2ccc(-c3ccccc3C(=O)O)cc2)cc1 [Example 71, 4′-((7-((4-(methoxycarbonyl)benzyl)carbamoyl)-2H-benzo[b][1,4]oxazine-4(3H)-yl)methyl)-[1,1′-biphenyl]-2-carboxylic acid]	+
COc1cccc(CNC(=O)c2ccc3c(c2)OCCN3Cc2ccc(-c3ccccc3C(=O)O)cc2)c1 [Example 72, 4′-((7-((3-methoxybenzyl)carbamoyl)-2H-benzo[b][1,4]oxazine-4(3H)-yl)methyl)-[1,1′-biphenyl]-2-carboxylic acid]	+
O=C(NCc1ccc(Br)cc1)c1ccc2c(c1)OCCN2Cc1ccc(-c2ccccc2C(=O)O)cc1 [Example 73, 4′-((7-((4-bromobenzyl)carbamoyl)-2H-benzo[b][1,4]oxazine-4(3H)-yl)methyl)-[1,1′-biphenyl]-2-carboxylic acid]	+
C[C@H](NC(=O)c1ccc2c(c1)OCCN2Cc1ccc(-c2ccccc2C(=O)O)cc1)c1ccc(OC(F)(F)F)cc1 [Example 75, (S)-4′-((7-((1-(4-(trifluoromethoxy)phenyl)ethyl)carbamoyl)-2H-benzo[b][1,4]oxazine-4(3H)-yl)methyl)-[1,1′-biphenyl]-2-carboxylic acid]	+++
C[C@H](NC(=O)c1ccc2c(c1)OCCN2Cc1ccc(-c2ccccc2C(=O)O)cc1)c1ccc(C(F)(F)F)cc1 [Example 76, (S)-4′-((7-((1-(4-(trifluoromethyl)phenyl)ethyl)carbamoyl)-2H-benzo[b][1,4]oxazine-4(3H)-yl)methyl)-[1,1′-biphenyl]-2-carboxylic acid]	+++
C[C@H](NC(=O)c1ccc2c(c1)OCCN2Cc1ccc(-c2ccccc2C(=O)O)cc1)c1ccc(SC(F)(F)F)cc1 [Example 77, (S)-4′-((7-((1-(4-((trifluoromethyl)thio)phenyl)ethyl)carbamoyl)-2H-benzo[b][1,4]oxazine-4(3H)-yl)methyl)-[1,1′-biphenyl]-2-carboxylic acid]	+++
C[C@H](NC(=O)c1ccc2c(c1)OCCN2Cc1ccc(-c2ccccc2C(=O)O)cc1)c1ccc(C(C)(C)C)cc1 [Example 78, (S)-4′-((7-((1-(4-(tert-butyl)phenyl)ethyl)carbamoyl)-2H-benzo[b][1,4]oxazine-4(3H)-yl)methyl)-[1,1′-biphenyl]-2-carboxylic acid]	++
Cc1cc(F)ccc1[C@H](C)NC(=O)c1ccc2c(c1)OCCN2Cc1ccc(-c2ccccc2C(=O)O)cc1 [Example 79, (S)-4′-((7-((1-(4-fluoro-2-methylphenyl)ethyl)carbamoyl)-2H-benzo[b][1,4]oxazine-4(3H)-yl)methyl)-[1,1′-biphenyl]-2-carboxylic acid]	++
Cc1ccc([C@H](C)NC(=O)c2ccc3c(c2)OCCN3Cc2ccc(-c3ccccc3C(=O)O)cc2)cc1F [Example 80, (S)-4′-((7-((1-(3-fluoro-4-methylphenyl)ethyl)carbamoyl)-2H-benzo[b][1,4]oxazine-4(3H)-yl)methyl)-[1,1′-biphenyl]-2-carboxylic acid]	++
C[C@@H](NC(=O)c1ccc2c(c1)OCCN2Cc1ccc(-c2ccccc2C(=O)O)cc1)c1ccc(C#N)cc1 [Example 81, (R)-4′-((7-((1-(4-cyanophenyl)ethyl)carbamoyl)-2H-benzo[b][1,4]oxazine-4(3H)-yl)methyl)-[1,1′-biphenyl]-2-carboxylic acid]	+++
O=C(NC1COc2ccccc2C1)c1ccc2c(c1)OCCN2Cc1ccc(-c2ccccc2C(=O)O)cc1 (stereo not shown) [Example 82]	+++
C[C@H](NC(=O)c1ccc2c(c1)OCCN2Cc1ccc(-c2ccccc2C(=O)O)cc1)c1c(F)cccc1F [Example 83, (S)-4′-((7-((1-(2,6-fluorophenyl)ethyl)carbamoyl)-2H-benzo[b][1,4]oxazine-4(3H)-yl)methyl)-[1,1′-biphenyl]-2-carboxylic acid]	++
